Data on 2 compounds can be found in paper PMC5399052, “Integrating in vitro data and physiologically based kinetic (PBK) modelling to assess the in vivo potential developmental toxicity of a series of phenols” (Archives of Toxicology, 2016).

The test system of one data set is rat liver microsomes. The settings on record: cited from earlier work.
Data set [1] can be described thus: In vivo developmental toxicity study, rats exposed at GD11. The note with it: female, rat. An excerpt:
The BMDL05 values of the in vivo study were derived using the BMDS version 2.6.

A further data set has as its system ES-D3 cells. The settings on record: ref Strikwold et al. [2012]; cited from earlier work.
The nature of the next data set: in vitro. The note with it: rat, pH 7.4. The method, then: The formation of glucuronide metabolites of the p-substituted phenols was investigated in incubations with rat liver microsomes. […] To obtain maximum glucuronidation activity, the microsomes were activated by preincubating the incubation mixture with 0.025 mg/ml alamethicin added from a 200 times concentrated stock solution in methanol, during 15 min on ice (Fisher et al. [2000]). Subsequently, the incubations were started after a 1-min preincubation at 37 °C by addition of the substrate from a 200 times concentrated stock solution in DMSO and incubated in a shaking water bath at 37 °C for 45 min. The reactions were terminated by addition of ice-cold acetonitrile (20% v/v). In the blank incubation mixtures, UDPGA was omitted. Samples were analysed by UPLC–PDA (see “Quantification of analytes” section). No reference standards of the glucuronide metabolites were commercially available. […] At first, retention times from the UPLC–PDA chromatograms of the parent compound of the blank incubation were compared with the retention times of newly appearing peaks in chromatograms of the incubation mixtures, as the glucuronide conjugates are expected to elute earlier compared with their parent compounds due do their increased hydrophilicity. […] For this purpose, a volume of 10 µl of the incubation mixture of the glucuronidation assay (that was not terminated by the addition of ice-cold acetonitrile) was added to 90 µl of 200 mM potassium phosphate (pH 6.2). Then, 4 µl of glucuronidase (200 units/ml) was added, and the mixtures were incubated for 60 min in a shaking water bath at 37 °C. The reactions were terminated by addition of ice-cold acetonitrile (20% v/v) and were put on ice. Control samples were treated under the same conditions, but without glucuronidase.
The conditions of the incubation assays were optimised to obtain linear reaction rates with respect to incubation time and protein concentration and non-limiting cofactor levels were applied. […] To obtain maximum glucuronidation activity, the microsomes were activated by preincubating the incubation mixture with 0.025 mg/ml alamethicin added from a 200 times concentrated stock solution in methanol, during 15 min on ice (Fisher et al. [2000]).
Kinetic constants for the glucuronidation of the p-substituted phenols were derived by fitting the data to the standard Michaelis–Menten equation; v=Vmax∗S/Km+[S] in which [S] represents the substrate concentration, V max the maximum velocity and K m the Michaelis–Menten constant for the formation of the glucuronide metabolites. Data analysis was accomplished using GraphPad Prism 5.0 software (GraphPad, San Diego, CA, USA). […] The in vivo K m value was assumed to be the same to the in vitro K m value.
Samples from the BeWo and Caco-2 transport experiments were centrifuged at 13,000 rpm at 5 °C for 15 min. Next 7.5 µl of the supernatant of each sample was analysed by UPLC (Waters Acquity). Samples from the glucuronidation assays were centrifuged at 15,000 rpm at 5 °C for 5 min. […] All samples, except those from transport studies with fluorescein, were analysed on a Waters BEH C18 1.7 µm column, 2.1 × 50 mm, with nanopure water (0.1% TFA) (A) and pure acetonitrile (B) applying a gradient elution. The start condition was 100:0 (A:B), changing to 90:10 from 1 to 2 min, then to 10:90 from 2 to 4 min (or from 2 to 3 min when analysing samples for p-heptyloxyphenylglucuronide), remaining at this ratio for 0.5 min and then rapidly declining to the start condition. The flow rate was 0.6 ml/min.

In general, Km refers to the substrate concentration at which the rate is half of its maximum. As usually defined, the NOAEL is the highest dose or exposure tested at which no adverse effect was seen.

On to `Oc1ccccc1` [Phenol], for which the Km in the data set on rat liver microsomes (read-out: Km(app) glucuronidation (± SD), ref Strikwold et al. [2013]) is 465 ± 66 µM. Moreover, the “Vmax(app) glucuronidation (± SD)” value with rat liver microsomes (ref Strikwold et al. [2013]) is given as 90 ± 4 nmol/min/mg microsomal protein. The compound also came in with an NOAEL in data set [1] of 333 mg/kg.
Take `Oc1ccc(F)cc1` [p-Fluorophenol, p-fluorophenol]: in the data set on ES-D3 cells, the “Potency ratio / difference in BMC50 (phenol / p-substituted phenol) in the EST” value was 1.9 fold. Further, in the data set “in vitro”, the Km at 10 min stood at 314 ± 16 µM.
